Assay results as given in patent publication US10519177B2, “Heterocyclic compounds and uses thereof” (Plexxikon Inc., priority 2013, dated 2019).
Read-outs that look alike come from different tables or passages of the source.

Key:
[1] = molecular target: BRD4-BD12 (1-477) (Homo sapiens (Human), UniProt O60885); assay: Alphascreen binding assay BRD4-BD12; details: BRD4(1 2) H4; read-out: Biochemical activity (IC50 μM) BRD4(1 2) H4
In short: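 In this competition format, compounds displace a biotinylated tetra-acetyl H4 peptide from E. coli-expressed human BRD4 bromodomain constructs captured on nickel chelate beads. The reaction runs at pH 7.5 with 2 mM DTT and detergent for 1 h at room temperature before a 30 min bead step.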

[2] = test system: MV-4-11 cells; assay: Oncology cell growth assay MV-4-11 (CellTiter Glo); type: cell-based; details: Homo sapiens, MV4-11, 72 h, read-out: Cell activity (IC50 μM) MV-4-11 3d-Growth
In short: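 Growth read by CellTiter Glo luminescence after 72 h compound treatment of MLL-AF4-bearing MV-4-11 cells (3000/well). Titration: 8 points, 1:3 steps, maximum 10 μM, 0.2% DMSO final. Data normalized to DMSO wells, four-parameter fit gives pIC50.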

[3] = test system: bromodomain; assay: at least one of the bromodomain cell assays of Example 57; type: cell-based; details: at least one of the bromodomain cell assays described in Example 57; read-out: IC50 in at least one of the bromodomain cell assays

Cc1noc(C)c1-c1cnc2c(-c3ccc(C(=O)O)cc3)cn(CC3(F)CCCCC3)c2c1 [P-0367, 4-[6-(3,5-dimethylisoxazol-4-yl)-1-[(1-fluorocyclohexyl)methyl]pyrrolo[3,2-b]pyridin-3-yl]benzoic acid]
IC50 [1]: < 1 µM
IC50 [2]: < 1 µM
IC50 [3]: < 10000 nM

[2H]C([2H])(C1CCC(F)(F)CC1)n1cc(-c2cnn(C(=O)OC(C)(C)C)c2)c2ncc(-c3c(C)noc3C)cc21 [P-0362, tert-butyl 4-[1-[dideuterio-(4,4-difluorocyclohexyl)methyl]-6-(3,5-dimethylisoxazol-4-yl)pyrrolo[3,2-b]pyridin-3-yl]pyrazole-1-carboxylate]
IC50 [1]: < 1 µM
IC50 [2]: < 1 µM
IC50 [3]: < 10000 nM

Cc1noc(C)c1-c1cnc2c(-c3ccc(C#N)nc3)cn([C@@H](C)c3ccccn3)c2c1 [P-0595, 5-[6-(3,5-dimethylisoxazol-4-yl)-1-[(1S)-1-(2-pyridyl)ethyl]pyrrolo[3,2-b]pyridin-3-yl]pyridine-2-carbonitrile]
IC50 [1]: < 1 µM
IC50 ([2]; MV-4-11, 3d growth): < 1 µM
IC50 [3]: < 10000 nM

Cc1noc(C)c1-c1cnc2c(-c3ccc(C#N)cc3)cn(C(c3ccccn3)c3ccccn3)c2c1 [P-0592, 4-[1-[bis(2-pyridyl)methyl]-6-(3,5-dimethylisoxazol-4-yl)pyrrolo[3,2-b]pyridin-3-yl]benzonitrile]
IC50 [1]: < 1 µM
IC50 ([2]; MV-4-11, 3d growth): < 1 µM
IC50 [3]: < 10000 nM

Cn1cc(-c2cnc3c(-c4ccc(C(=O)O)cc4)cn(CC4CCC(F)(F)CC4)c3c2)ccc1=O [P-0480, 4-[1-[(4,4-difluorocyclohexyl)methyl]-6-(1-methyl-6-oxo-3-pyridyl)pyrrolo[3,2-b]pyridin-3-yl]benzoic acid]
IC50 [1]: < 1 µM
IC50 ([2]; MV-4-11, 3d growth): 1 to 10 µM
IC50 [3]: < 10000 nM

CNC(=O)c1ccc(-c2cn(CC3(F)CCCCC3)c3cc(-c4c(C)noc4C)cnc23)cc1 [P-0465, 4-[6-(3,5-dimethylisoxazol-4-yl)-1-[(1-fluorocyclohexyl)methyl]pyrrolo[3,2-b]pyridin-3-yl]-N-methyl-benzamide]
IC50 [1]: < 1 µM
IC50 ([2]; MV-4-11, 3d growth): < 1 µM
IC50 [3]: < 10000 nM

Cc1noc(C)c1-c1cnc2c(-c3ccc(C(=O)O)cc3)cn(CC3(C)CCOCC3)c2c1 [P-0774, 4-[6-(3,5-dimethylisoxazol-4-yl)-1-[(4-methyltetrahydropyran-4-yl)methyl]pyrrolo[3,2-b]pyridin-3-yl]benzoic acid]
IC50 [1]: < 1 µM
IC50 ([2]; MV-4-11, 3d growth): < 1 µM
IC50 [3]: < 10000 nM

[2H]C([2H])(C1CCC(F)(F)CC1)n1cc(-c2cn(C)nc2C)c2ncc(-c3c(C)noc3C)cc21 [P-0335, 4-[1-[dideuterio-(4,4-difluorocyclohexyl)methyl]-3-(1,3-dimethylpyrazol-4-yl)pyrrolo[3,2-b]pyridin-6-yl]-3,5-dimethyl-isoxazole]
IC50 [1]: < 1 µM
IC50 [2]: < 1 µM
IC50 [3]: < 10000 nM

Cc1cc(-c2cnc3c(-c4cnn(CC(F)(F)F)c4)cn(CC4CCC(F)(F)CC4)c3c2)c[nH]c1=O [P-0481, 5-[1-[(4,4-difluorocyclohexyl)methyl]-3-[1-(2,2,2-trifluoroethyl)pyrazol-4-yl]pyrrolo[3,2-b]pyridin-6-yl]-3-methyl-1H-pyridin-2-one]
IC50 [1]: < 1 µM
IC50 ([2]; MV-4-11, 3d growth): < 1 µM
IC50 [3]: < 10000 nM

Cc1noc(C)c1-c1cnc2c(-c3ccc(C(=O)OC(C)(C)C)cc3)cn(C(CC#N)C3CCCC3)c2c1 (stereo not drawn) [P-0526, tert-butyl 4-[1-(2-cyano-1-cyclopentyl-ethyl)-6-(3,5-dimethylisoxazol-4-yl)pyrrolo[3,2-b]pyridin-3-yl]benzoate]
IC50 [1]: < 1 µM
IC50 ([2]; MV-4-11, 3d growth): < 1 µM
IC50 [3]: < 10000 nM

Cc1noc(C)c1-c1cnc2c(c1)c(CC1CCC(F)(F)CC1)cn2-c1ccc(C(=O)NC2CC2)cn1 [P-0533, N-cyclopropyl-6-[3-[(4,4-difluorocyclohexyl)methyl]-5-(3,5-dimethylisoxazol-4-yl)pyrrolo[2,3-b]pyridin-1-yl]pyridine-3-carboxamide]
IC50 [1]: < 1 µM
IC50 ([2]; MV-4-11, 3d growth): < 1 µM
IC50 [3]: < 10000 nM
